According to patent US20130116263A1, “PAK INHIBITORS FOR THE TREATMENT OF CELL PROLIFERATIVE DISORDERS” (AFRAXIS, INC., priority 2011, published 2013):
Where two headings read alike, the source gives them in different places.

Legend:
Assay type in all cases: biochemical
PAK3 = PAK3 (Homo sapiens, UniProt O75914); assay: In vitro PAK inhibition assay (Z'-LYTE, SelectScreen), PAK3
Description: (§1) Compounds are screened in 1% DMSO (final) in the well. For 10 point titrations, 3-fold serial dilutions are conducted. All Peptide/Kinase Mixtures are diluted to a 2× working concentration in the appropriate Kinase Buffer
The 2×PAK3/Ser/Thr 20 mixture is prepared in 50 mM HEPES pH 7.5, 0.01% BRIJ-35, 10 mM MgCl2, 1 mM EGTA.
(§2) 1. Add the following solutions to a well in a 384-well plate: • 2.5 μL of 4× Test Compound OR (100 nL 100× Test Compound plus 2.4 μL kinase buffer) • 5 μL of 2× Peptide/Kinase (PAK) Mixture • 2.5 μL of 4×ATP Solution
(§3) 3. Incubate the PAK Kinase Reaction at room temperature for 60-minutes
(§4) 4. Add 5 μL of Development Reagent Solution to each well
(§5) 6. Incubate the Development Reaction for 60-minutes
(§6) 7. Determine the fluorescence using a fluorescence plate reader
(§7) SelectScreen® Kinase Profiling Service uses XLfit from IDBS.
(§8) The representative IC50 value with a known inhibitor for each kinase was determined at the ATP bin nearest to the ATP Km app.

PAK1 = PAK1 (Homo sapiens, UniProt Q13153); assay: In vitro PAK inhibition assay (Z'-LYTE, SelectScreen), PAK1
Sequence of PAK1 (Q13153 whole entry): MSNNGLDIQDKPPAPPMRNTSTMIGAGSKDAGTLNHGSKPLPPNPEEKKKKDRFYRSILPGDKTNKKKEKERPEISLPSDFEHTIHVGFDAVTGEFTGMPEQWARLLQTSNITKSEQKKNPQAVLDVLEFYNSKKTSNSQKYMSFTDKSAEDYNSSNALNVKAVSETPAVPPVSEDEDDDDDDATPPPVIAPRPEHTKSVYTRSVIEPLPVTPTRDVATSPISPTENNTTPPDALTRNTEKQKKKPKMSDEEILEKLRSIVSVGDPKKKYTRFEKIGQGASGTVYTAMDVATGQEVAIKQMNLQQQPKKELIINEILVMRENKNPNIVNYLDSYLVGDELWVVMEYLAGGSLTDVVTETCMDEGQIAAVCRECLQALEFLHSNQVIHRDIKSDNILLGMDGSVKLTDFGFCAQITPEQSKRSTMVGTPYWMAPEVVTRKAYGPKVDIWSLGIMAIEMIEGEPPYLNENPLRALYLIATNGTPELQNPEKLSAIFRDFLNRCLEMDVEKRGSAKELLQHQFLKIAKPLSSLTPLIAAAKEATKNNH
Description: as §1
The 2×PAK1/Ser/Thr 19 mixture is prepared in 50 mM HEPES pH 7.5, 0.01% BRIJ-35, 10 mM MgCl2, 1 mM EGTA.
as §2, §3, §4, §5, §6, §7, §8

PAK4 = PAK4 (Homo sapiens, UniProt O96013); assay: In vitro PAK inhibition assay (Z'-LYTE, SelectScreen), PAK4
Sequence of PAK4 (O96013 whole entry): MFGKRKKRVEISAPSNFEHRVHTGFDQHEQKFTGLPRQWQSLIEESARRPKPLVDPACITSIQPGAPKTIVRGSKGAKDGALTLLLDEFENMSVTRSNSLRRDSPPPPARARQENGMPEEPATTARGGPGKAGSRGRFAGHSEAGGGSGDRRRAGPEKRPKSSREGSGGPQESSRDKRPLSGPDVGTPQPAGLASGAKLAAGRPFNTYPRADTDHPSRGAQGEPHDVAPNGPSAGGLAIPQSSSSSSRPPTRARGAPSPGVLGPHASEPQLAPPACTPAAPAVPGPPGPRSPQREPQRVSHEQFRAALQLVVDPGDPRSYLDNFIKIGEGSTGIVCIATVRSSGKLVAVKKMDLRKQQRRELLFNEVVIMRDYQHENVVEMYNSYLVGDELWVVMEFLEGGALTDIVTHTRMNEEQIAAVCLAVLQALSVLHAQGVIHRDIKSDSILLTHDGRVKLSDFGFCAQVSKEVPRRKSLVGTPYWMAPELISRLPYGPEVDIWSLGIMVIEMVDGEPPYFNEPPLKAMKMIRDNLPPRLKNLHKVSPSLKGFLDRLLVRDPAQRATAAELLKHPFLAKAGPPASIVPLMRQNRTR
Description: as §1
The 2×PAK-4/Ser/Thr 20 mixture is prepared in 50 mM HEPES pH 7.5, 0.01% BRIJ-35, 10 mM MgCl2, 1 mM EGTA. The final 10 μL Kinase Reaction consists of 0.1-0.75 ng PAK-4 and 2 μM Ser/Thr 20 in 50 mM HEPES pH 7.5, 0.01% BRIJ-35, 10 mM MgCl2, 1 mM EGTA. After the 1 hour Kinase Reaction incubation, 5 μL of a 1:256 dilution of Development Reagent A is added.
as §2, §3, §4, §5, §6
SelectScreen® Kinase Profiling Service uses XLfit from IDBS. The dose response curve is curve fit to model number 205 (sigmoidal dose-response model).
The table below provides specifications and data around each kinase. The representative IC50 value with a known inhibitor for each kinase was determined at the ATP bin nearest to the ATP Km app.

PAK2 (PAK65) = PAK2 (PAK65) (Homo sapiens, UniProt Q13177); assay: In vitro PAK inhibition assay (Z'-LYTE, SelectScreen), PAK2
Sequence of PAK2 (PAK65) (Q13177 whole entry): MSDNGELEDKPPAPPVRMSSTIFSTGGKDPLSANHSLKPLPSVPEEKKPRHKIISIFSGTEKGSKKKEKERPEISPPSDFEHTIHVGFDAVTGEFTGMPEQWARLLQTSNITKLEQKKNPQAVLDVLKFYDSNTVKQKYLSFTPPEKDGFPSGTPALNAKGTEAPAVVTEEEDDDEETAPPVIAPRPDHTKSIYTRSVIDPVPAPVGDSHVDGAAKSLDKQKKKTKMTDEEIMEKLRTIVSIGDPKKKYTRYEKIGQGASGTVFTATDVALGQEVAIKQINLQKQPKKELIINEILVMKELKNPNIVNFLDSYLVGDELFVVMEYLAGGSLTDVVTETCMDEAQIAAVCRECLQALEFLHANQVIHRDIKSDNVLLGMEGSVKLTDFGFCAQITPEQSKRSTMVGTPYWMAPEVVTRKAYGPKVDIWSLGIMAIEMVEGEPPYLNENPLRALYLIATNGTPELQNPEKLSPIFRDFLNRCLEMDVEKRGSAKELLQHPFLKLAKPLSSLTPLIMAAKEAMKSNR
Description: as §1
The 2×PAK2 (PAK65)/Ser/Thr 20 mixture is prepared in 50 mM HEPES pH 7.5, 0.01% BRIJ-35, 10 mM MgCl2, 1 mM EGTA. The final 10 μL Kinase Reaction consists of 0.29-6 ng PAK2 (PAK65) and 2 μM Ser/Thr 20 in 50 mM HEPES pH 7.5, 0.01% BRIJ-35, 10 mM MgCl2, 1 mM EGTA.
as §2, §3, §4, §5, §6, §7, §8

Sequence of PAK3 (O75914 1-544 isoform O75914-2): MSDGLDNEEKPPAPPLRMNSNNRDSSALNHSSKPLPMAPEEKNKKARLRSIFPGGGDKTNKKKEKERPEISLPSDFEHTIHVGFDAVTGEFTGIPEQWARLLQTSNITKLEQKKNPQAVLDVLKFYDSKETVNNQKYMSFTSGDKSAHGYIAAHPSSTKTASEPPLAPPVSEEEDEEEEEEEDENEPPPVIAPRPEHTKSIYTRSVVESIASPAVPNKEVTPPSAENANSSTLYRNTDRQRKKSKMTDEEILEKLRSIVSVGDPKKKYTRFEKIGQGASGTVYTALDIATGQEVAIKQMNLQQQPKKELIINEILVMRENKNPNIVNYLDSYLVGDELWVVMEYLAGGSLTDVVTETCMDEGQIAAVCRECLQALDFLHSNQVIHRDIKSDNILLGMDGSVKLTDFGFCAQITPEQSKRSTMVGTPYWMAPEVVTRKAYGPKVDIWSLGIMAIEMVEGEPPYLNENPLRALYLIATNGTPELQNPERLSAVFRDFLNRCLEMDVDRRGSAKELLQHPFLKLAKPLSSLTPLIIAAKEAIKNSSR

IC50 (PAK3; read-out: PAK3 IC50) [nM] | IC50 (PAK1; read-out: PAK1 IC50) [nM] | IC50 (PAK4) [nM] | IC50 (PAK2 (PAK65); read-out: PAK2 IC50) [nM] | SMILES | IC50 (PAK3; PAK3 IC50 (nM)) [nM] | IC50 (PAK1) [nM] | IC50 (PAK2 (PAK65)) [nM]
500 to 5000 | 50 to 500 | > 5000 | 50 to 500 | CCn1c(=O)c(-c2ccc(-c3cccnc3)cc2Cl)cc2cnc(N[C@@H]3CCOC3)nc21 [Example 51] | – | – | –
> 5000 | > 5000 | > 5000 | > 5000 | CCn1c(=O)c(-c2ccc(-c3ccnnc3)cc2Cl)cc2cnc(N[C@@H]3CCOC3)nc21 [Example 62] | – | – | –
50 to 500 | < 50 | > 5000 | < 50 | Cc1nccnc1-c1ccc(-c2cc3cnc(NC4CCOCC4)nc3n(Cc3ccccc3)c2=O)c(Cl)c1 [Example 16] | – | – | –
> 5000 | 50 to 500 | > 5000 | 50 to 500 | CCn1c(=O)c(-c2ccc(-c3nccnc3C)cc2Cl)cc2cnc(NC3CCCN(C)C3)nc21 (stereo not drawn) [Example 81] | – | – | –
500 to 5000 | 50 to 500 | > 5000 | 50 to 500 | CCn1c(=O)c(-c2ccc(-c3cnc(C)s3)cc2Cl)cc2cnc(N[C@@H]3CCOC3)nc21 [Example 55] | – | – | –
500 to 5000 | 50 to 500 | > 5000 | 50 to 500 | CCn1c(=O)c(-c2ccc(-c3nccnc3C)cc2Cl)cc2cnc(N[C@@H]3CCOC3)nc21 [Example 58] | – | – | –
500 to 5000 | 50 to 500 | > 5000 | 50 to 500 | Cc1nccnc1-c1ccc(-c2cc3cnc(N[C@@H]4CCOC4)nc3n(Cc3ccncc3)c2=O)c(Cl)c1 [Example 124] | – | – | –
500 to 5000 | 50 to 500 | > 5000 | 50 to 500 | Cc1nccnc1-c1ccc(-c2cc3cnc(NC4CCOCC4)nc3[nH]c2=O)c(Cl)c1 [Example 10] | – | – | –
50 to 500 | 50 to 500 | > 5000 | 50 to 500 | CCn1c(=O)c(-c2ccc(-c3cccnc3O)cc2Cl)cc2cnc(NC3CCOCC3)nc21 [Example 48] | – | – | –
> 5000 | > 5000 | > 5000 | 500 to 5000 | CCn1c(=O)c(-c2ccc(-c3nccnc3C)cc2Cl)cc2cnc(NC3CCCCC3)nc21 [Example 3] | – | – | –
> 5000 | 500 to 5000 | > 5000 | > 5000 | CCn1c(=O)c(-c2ccc(-c3cccnc3OC)cc2Cl)cc2cnc(NC3CCOCC3)nc21 [Example 52] | – | – | –
50 to 500 | 50 to 500 | > 5000 | 50 to 500 | O=c1c(-c2ccc(-c3ccncn3)cc2Cl)cc2cnc(NC3CCOCC3)nc2n1Cc1ccccc1C(F)(F)F [Example 23] | – | – | –
< 50 | < 50 | > 5000 | 50 to 500 | CCn1c(=O)c(-c2ccc(-c3cccnc3F)cc2Cl)cc2cnc(NC3CCOCC3)nc21 [Example 12] | – | – | –
50 to 500 | 50 to 500 | > 5000 | 50 to 500 | Cc1cncc(-c2ccc(-c3cc4cnc(NC5CCOCC5)nc4n(Cc4ccccc4F)c3=O)c(Cl)c2)n1 [Example 36] | – | – | –
500 to 5000 | 50 to 500 | > 5000 | 50 to 500 | CCn1c(=O)c(-c2ccc(-c3nccnc3C)cc2Cl)cc2cnc(NC3CCN(C)C3)nc21 (stereo not drawn) [Example 78, 6-(2-chloro-4-(3-methylpyrazin-2-yl)phenyl)-8-ethyl-2-((1-methylpyrrolidin-3-yl)amino)pyrido[2,3-d]pyrimidin-7(8H)-one] | – | – | –
500 to 5000 | 50 to 500 | > 5000 | 50 to 500 | COCCn1c(=O)c(-c2ccc(-c3cnccn3)cc2Cl)cc2cnc(NC3CCOC3)nc21 (stereo not drawn) [Example 53] | – | – | –
50 to 500 | < 50 | > 5000 | < 50 | Cc1nccnc1-c1ccc(-c2cc3cnc(N[C@H]4CCOC4)nc3n(Cc3ccccn3)c2=O)c(Cl)c1 [Example 125] | – | – | –
500 to 5000 | 50 to 500 | > 5000 | 50 to 500 | CCn1c(=O)c(-c2ccc(-c3ccn(C)n3)cc2Cl)cc2cnc(N[C@@H]3CCOC3)nc21 [Example 63] | – | – | –
50 to 500 | 50 to 500 | > 5000 | 50 to 500 | Cc1cnc(-c2ccc(-c3cc4cnc(NC5CCOCC5)nc4n(Cc4ccccc4C(F)(F)F)c3=O)c(Cl)c2)s1 [Example 26] | – | – | –
50 to 500 | < 50 | > 5000 | 50 to 500 | Cc1cncc(-c2ccc(-c3cc4cnc(NC5CCOCC5)nc4n(Cc4ccccc4Cl)c3=O)c(Cl)c2)n1 [Example 42] | – | – | –
50 to 500 | < 50 | > 5000 | < 50 | CCn1c(=O)c(-c2ccc(-c3cncc(C)n3)cc2Cl)cc2cnc(N[C@@H]3CCOC3)nc21 [Example 28] | – | – | –

Further lines, the compound ahead of its results:

SMILES | IC50 (PAK3; read-out: PAK3 IC50) [nM] | IC50 (PAK1; read-out: PAK1 IC50) [nM] | IC50 (PAK4) [nM] | IC50 (PAK2 (PAK65); read-out: PAK2 IC50) [nM] | IC50 (PAK3; PAK3 IC50 (nM)) [nM] | IC50 (PAK1) [nM] | IC50 (PAK2 (PAK65)) [nM]
Cc1cncc(-c2ccc(-c3cc4cnc(NC5CCOCC5)nc4n(C4CCCC4)c3=O)c(Cl)c2)n1 [Example 89] | 50 to 500 | 50 to 500 | > 5000 | 50 to 500 | – | – | –
Cc1cncc(-c2ccc(-c3cc4cnc(NC5CC5)nc4n([C@H]4CC[C@H](N)CC4)c3=O)c(Cl)c2)n1 [Example 112] | < 50 | < 50 | 500 to 5000 | < 50 | – | – | –
CCNc1ncc2cc(-c3ccc(-c4cncc(C)n4)cc3Cl)c(=O)n([C@H]3CC[C@H](N)CC3)c2n1 [Example 117] | < 50 | < 50 | 500 to 5000 | < 50 | – | – | –
Cc1nc(-c2ccc(-c3cc4cnc(NC5CCOCC5)nc4n(Cc4ccccc4C(F)(F)F)c3=O)c(Cl)c2)no1 [Example 24] | – | – | > 5000 | – | 50 to 500 | 50 to 500 | 50 to 500
CCn1c(=O)c(-c2ccc(-c3cncc(C)n3)cc2Cl)cc2cnc(N[C@H]3CCCNC3=O)nc21 [Example 69] | > 5000 | > 5000 | > 5000 | > 5000 | – | – | –
Cc1cncc(-c2ccc(-c3cc4cnc(N[C@H]5CCOC5)nc4n(C4CCN(C)CC4)c3=O)c(Cl)c2)n1 [Example 108] | 50 to 500 | 50 to 500 | > 5000 | 50 to 500 | – | – | –
CCn1c(=O)c(-c2ccc(-c3ccncc3)cc2Cl)cc2cnc(NC3CCOCC3)nc21 [Example 43] | > 5000 | 500 to 5000 | > 5000 | 500 to 5000 | – | – | –
CCn1c(=O)c(-c2ccc(-c3cncc(C)n3)cc2Cl)cc2cnc(N[C@H]3CC[C@H](CN(C)C)CC3)nc21 [Example 84, 6-(2-chloro-4-(6-methylpyrazin-2-yl)phenyl)-2-((trans-1,4)-4-((dimethylamino)methyl)cyclohexylamino)-8-ethylpyrido[2,3-d]pyrimidin-7(8H)-one] | < 50 | < 50 | > 5000 | < 50 | – | – | –
Cc1cncc(-c2ccc(-c3cc4cnc(NC5CCOCC5)nc4n(Cc4ccccc4C(F)(F)F)c3=O)c(Cl)c2)n1 [Example 20] | 50 to 500 | 50 to 500 | > 5000 | < 50 | – | – | –
Cc1cncc(-c2ccc(-c3cc4cnc(NC5CCCCC5)nc4n([C@H]4CC[C@H](N)CC4)c3=O)c(Cl)c2)n1 [Example 114] | 50 to 500 | < 50 | > 5000 | < 50 | – | – | –
Cc1cncc(-c2ccc(-c3cc4cnc(NC5CC5)nc4n(CCN)c3=O)c(Cl)c2)n1 [Example 111] | 50 to 500 | 50 to 500 | > 5000 | 50 to 500 | – | – | –
Cc1cncc(-c2ccc(-c3cc4cnc(NC5CCCC5)nc4n([C@H]4CC[C@H](N)CC4)c3=O)c(Cl)c2)n1 [Example 118] | < 50 | < 50 | 500 to 5000 | < 50 | – | – | –
Cc1cncc(-c2ccc(-c3cc4cnc(N[C@H]5CCOC5)nc4n(CCN(C)C)c3=O)c(Cl)c2)n1 [Example 103] | 500 to 5000 | 50 to 500 | > 5000 | 50 to 500 | – | – | –
CCn1c(=O)c(-c2ccc(-c3cncc(C)n3)cc2Cl)cc2cnc(N[C@H]3CC[C@H](CN)CC3)nc21 [Example 87] | < 50 | < 50 | > 5000 | < 50 | – | – | –
Cc1nc(-c2ccc(-c3cc4cnc(NC5CCOCC5)nc4[nH]c3=O)c(Cl)c2)no1 [Example 11] | 50 to 500 | 50 to 500 | > 5000 | 50 to 500 | – | – | –
